One compound from patent US10301304B2, “Selective inhibitor of phosphatidylinositol 3-kinase-gamma” (VERTEX PHARMACEUTICALS INCORPORATED, priority 2013, dated 2019) can be followed below.

Data set [1] concerns MCP-1 stimulated pAkt in THP-1 cells (PI3K-gamma). The data set is described as follows: MCP-1 Stimulated pAkt in THP-1 Cells. The class given is cell-based. The following applies: Homo sapiens. As for the experimental part: Chemokines like MCP-1 bind to their receptors resulting in activation of the PI3K-gamma signaling pathway. PI3K-gamma leads to generation of PIP3 and activation of downstream molecules like PDK-1 and Akt. Akt phosphorylation is a measure of PI3K activity in the cell. In this assay, THP-1 cells (human monocytic cell line) are starved overnight to deplete pAkt levels. Subsequent stimulation with MCP-1 for 3 minutes leads to PI3K-gamma-induced phoshorylation of Akt at the Threonin 308 and Serine 473 sites. Cells were fixed and stained for intracellular phosphoAKT (Ser 473) then analyzed using a BD FACSCalibur™ cytometer resulting in a measure of cellular PI3K-gamma activity.

Data set [2] in a line: Tissue drug concentrations in CD40-induced IBD model. In kind it is in vivo, mouse. The following applies: 7 days, 2 h after last dose; for Kp at 2 h / concentration at 2 h: Rag1 knock-out (Rag 1−/−), mouse, intraperitoneal; for Kp at 2 h: colon (relative to plasma); for concentration at 2 h: plasma. On the procedure: The PI3Kγ inhibitor, Compound 1, was tested in a CD40 induced colitis model to determine its effect on disease course. The CD40 model of IBD is induced by injecting an anti-CD40 monoclonal antibody (agonist, i.e., activating antibody versus neutralizing antibody) into T and B cell deficient mice (Rag 1−/− mice) to induce both systemic and intestinal inflammation that leads to colitis and wasting disease via the innate immune pathway. (See, e.g., Immunity 25, 309-318, August 2006). Briefly, Rag1 knock-out mice were injected IP with the anti-CD40 monoclonal antibody FGK45. Starting on Day 0, mice were treated with PBS, vehicle or Compound 1 at 5 mg/kg b.i.d. or 10 mg/kg b.i.d. Compound 1 was administered IP for 7 days on a 10/14-hour b.i.d. dosing regimen. Compound 1 was formulated in 5% NMP/15% PEG-400/80% in a 0.5% HPMC-E50 solution in water. At study termination, serum and colon samples were collected at 2 hours following the last dose for drug concentration analysis. Body weights were measured daily during the study. Compound 1 concentrations were analyzed in the plasma samples collected 2 hours following the final dose at study termination. Concentrations were determined using a high performance liquid chromatography/tandem mass spectrometry (HPLC/MS/MS) method.

The nature of data set [3]: Permeability in MDCK wild-type cell line. In kind it is in vitro ADME, canine. The following applies: dog, MDCK-WT. As for the experimental part:
(§1) The permeability of Compound 1 was evaluated using both Caco-2 and MadinDarby canine kidney (MDCK) wild-type cell lines. Cells were exposed to drug in buffer on the apical side (measuring permeability in the A-to-B direction) or basolateral side (measuring permeability in the B-to-A direction) and incubated at 37° C. for one hour. Permeability was high in the A-to-B direction in both the MDCK and Caco-2 cell lines (33 and 18×10^−6 cm/sec, respectively).

A further data set deals with MDCK-WT. Nature of the data set: Permeability in MDCK wild-type cell line. In kind it is in vitro ADME, canine. The following applies: 1 μM, A > B. On the procedure:
as §1

In data set [4] the test system is whole blood neutrophils and monocytes (PI3K-gamma). Nature of the data set: Whole Blood oxidative burst. In kind it is cell-based. The following applies: presence of serum, read-out: IC50 Average ± Standard Deviation. The text has this: Neutrophils, monocytes and macrophages are key mediators of innate immunity. They release reactive oxygen species (ROS) as part of the innate immune inflammatory response. ROS production is induced by inflammatory mediators like chemokines, bacterial peptides and complement that recruit the innate immune cells to the site of inflammation. These inflammatory mediators trigger activation of PI3K-gamma and initiate a downstream signaling cascade that leads to the assembly of the complete NADPH oxidase complex at the plasma membrane generating ROS. PI3K-gamma functional activity was measured in whole blood and huffy coat neutrophils and monocytes via the generation of ROS. The cells are stimulated with TNF-alpha for 10 minutes, then with bacterial cell wall-derived chemotactic peptide, fMLP, for 20 minutes, and loaded with a non-fluorescent dye […] (DHR). ROS produced by the cells oxidizes DHR to fluorescent rhodamine causing an increase in fluorescent rhodamine content in the cells. PI3K-gamma functional activity is measured by the ability of neutrophils and monocytes to generate ROS following fMLP stimulation. Leukocytes and whole blood samples were analyzed on a BD FACSCalibur™ to quantitate cells positive for fluorescent rhodamine. Buffy coat cells generate IC50S in the absence of serum and whole blood assay generates IC50S in the presence of serum.

A further data set has as its target CYP3A4 (Homo sapiens, UniProt P08684). Nature of the data set: Time-dependent inhibition of CYP3A4, IC50 shift assay. The following applies: CYP3A4, preincubation 0 and 30 minutes with/without NADPH, human liver microsomes. Further details: evaluated in human liver microsomes using the IC50 shift assay; from tissue; host or cells: human liver microsomes. In kind it is in vitro ADME. On the procedure: Time-dependent inhibition of CYP3A4 by Compound 1 also was evaluated in human liver microsomes using the IC50 shift assay. In the study, Compound 1 at 0.1 to 50 μM was preincubated with human liver microsomes in the presence and absence of NADPH for 0 and 30 minutes. Incubations were then diluted 10-fold with buffer and the remaining CYP3A4 (testosterone-6-beta-hydroxylase) activity was measured over a 10 minute period. There was no significant change (IC50 shift=1) in the IC50 of Compound 1 in the presence or absence of NADPH.

In another data set the target is T1, human P-gp (MDR) (Homo sapiens, UniProt P08183).
T1 construct: expressed in transfected cells; host or cells: MDCK (Madin-Darby canine kidney) cells, MDCK-MDR1
T1 sequence (P08183 whole entry): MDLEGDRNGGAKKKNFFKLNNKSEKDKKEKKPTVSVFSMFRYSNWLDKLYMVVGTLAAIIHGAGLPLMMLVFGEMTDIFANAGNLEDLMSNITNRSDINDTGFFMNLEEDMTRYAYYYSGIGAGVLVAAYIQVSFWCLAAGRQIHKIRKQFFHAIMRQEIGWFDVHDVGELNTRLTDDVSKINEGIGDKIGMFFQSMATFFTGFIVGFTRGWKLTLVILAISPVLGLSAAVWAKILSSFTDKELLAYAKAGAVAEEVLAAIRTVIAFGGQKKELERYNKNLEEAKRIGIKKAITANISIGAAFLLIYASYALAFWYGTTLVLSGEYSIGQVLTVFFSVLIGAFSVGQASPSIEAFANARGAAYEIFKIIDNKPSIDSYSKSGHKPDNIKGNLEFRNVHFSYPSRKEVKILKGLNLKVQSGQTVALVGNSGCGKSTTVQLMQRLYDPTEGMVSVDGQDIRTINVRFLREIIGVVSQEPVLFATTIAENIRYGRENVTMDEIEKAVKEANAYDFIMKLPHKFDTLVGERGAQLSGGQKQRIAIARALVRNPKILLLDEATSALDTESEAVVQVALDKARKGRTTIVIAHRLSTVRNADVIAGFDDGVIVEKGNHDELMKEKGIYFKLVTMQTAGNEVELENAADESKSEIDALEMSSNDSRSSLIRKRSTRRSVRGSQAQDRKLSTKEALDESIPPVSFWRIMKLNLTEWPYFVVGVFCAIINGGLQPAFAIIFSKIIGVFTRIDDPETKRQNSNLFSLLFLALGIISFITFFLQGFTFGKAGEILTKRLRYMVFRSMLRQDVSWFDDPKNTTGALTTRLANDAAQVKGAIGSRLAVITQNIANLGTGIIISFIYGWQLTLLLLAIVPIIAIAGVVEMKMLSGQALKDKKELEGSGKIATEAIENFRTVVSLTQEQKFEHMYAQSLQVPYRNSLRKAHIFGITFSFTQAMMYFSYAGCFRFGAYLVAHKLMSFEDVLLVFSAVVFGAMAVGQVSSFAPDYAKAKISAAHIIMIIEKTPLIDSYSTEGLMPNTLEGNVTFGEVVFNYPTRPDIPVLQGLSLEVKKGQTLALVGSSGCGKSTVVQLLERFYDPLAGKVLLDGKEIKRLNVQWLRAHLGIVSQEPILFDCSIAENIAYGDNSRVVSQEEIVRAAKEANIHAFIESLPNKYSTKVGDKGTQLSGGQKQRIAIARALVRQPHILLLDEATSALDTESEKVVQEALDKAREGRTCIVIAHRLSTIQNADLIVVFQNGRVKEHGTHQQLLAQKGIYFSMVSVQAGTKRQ
The data set is described as follows: Efflux in MDCK-MDR1 cell line. In kind it is in vitro ADME. The conditions noted are these: MDCK overexpressing human P-gp, in words. On the procedure: as §1
(§2) An assessment of whether Compound 1 is a substrate of efflux transporters was conducted by using the MDCK cell line that is overexpressed with human P-gp (MDR).

The target of a further data set is T2, P-gp (MDR1) (Homo sapiens, UniProt P08183).
T2 construct: expressed in transfected cells; host or cells: MDCK (Madin-Darby canine kidney) cells, MDCK-MDR1
T2 sequence (P08183 whole entry): as above
The data set is described as follows: Efflux in MDCK-MDR1 cell line. The following applies: human; for recovery at 1 h, 1 μM: MDCK-MDR1, MDCK-MDR1, 1 μM. The class given is in vitro ADME. On the procedure: as §1, §2

Like-named read-outs stand apart in the source and are kept apart here.

Chain of CYP3A4 (P08684 whole entry): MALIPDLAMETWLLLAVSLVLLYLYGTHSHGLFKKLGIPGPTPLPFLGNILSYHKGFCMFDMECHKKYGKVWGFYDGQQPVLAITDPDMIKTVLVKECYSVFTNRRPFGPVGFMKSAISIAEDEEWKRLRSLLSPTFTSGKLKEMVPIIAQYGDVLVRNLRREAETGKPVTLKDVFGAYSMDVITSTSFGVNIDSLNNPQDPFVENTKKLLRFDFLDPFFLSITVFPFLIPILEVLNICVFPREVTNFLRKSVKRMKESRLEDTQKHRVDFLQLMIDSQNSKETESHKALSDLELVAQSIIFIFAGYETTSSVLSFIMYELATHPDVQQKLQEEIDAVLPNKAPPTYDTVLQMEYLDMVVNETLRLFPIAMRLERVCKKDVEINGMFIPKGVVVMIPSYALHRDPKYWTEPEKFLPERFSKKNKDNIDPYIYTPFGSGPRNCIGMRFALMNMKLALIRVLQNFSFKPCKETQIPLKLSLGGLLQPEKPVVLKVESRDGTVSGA

`Cc1cc(-c2cncc([C@@H](O)C(F)(F)F)c2)nc2c1C(=O)N(c1cnn(CC(F)F)c1)C2(C)C` [Compound 1, (R)-6-(1-(2,2-difluoroethyl)-1H-pyrazol-4-yl)-4,7,7-trimethyl-2-(5-(2,2,2-trifluoro-1-hydroxyethyl)pyridin-3-yl)-6,7-dihydro-5H-pyrrolo[3,4-b]pyridin-5-one]: the IC50 is 250 nM in data set [1] (THP-1, summary of cell assays, read-out: potency in PI3K-gamma associated cell assays); 240 ± 70 nM in data set [1] (THP-1/MCP-1/pAkt, PI3K-gamma dependent, read-out: IC50 Average ± Standard Deviation); 570 nM in data set [4]. For the same compound, the “2 h Tissue Drug Concentration, Colon” value in data set [2] (5 mg/kg b.i.d. IP) is given as 6110 ± 6350 ng/g; in data set [2] (10 mg/kg b.i.d. IP) it was 7480 ± 9700 ng/g. Moreover, the figures for the Kp at 2 h in data set [2] (5 mg/kg b.i.d. IP) and in data set [2] (10 mg/kg b.i.d. IP) were 1.5 and 1.2, respectively. Besides, the concentration at 2 h was found to be 4020 ± 4520 ng/mL in data set [2] (5 mg/kg b.i.d. IP) and 6220 ± 6190 ng/mL in data set [2] (10 mg/kg b.i.d. IP). The Papp A→B at 1 h, 1 μM in data set [3] (MDCK, A > B) was determined as 33 ×10⁻⁶ cm/s; on P-gp (MDR1) (MDCK-MDR1, 1 μM, A > B), 0.98 ×10⁻⁶ cm/s. In addition, the recovery at 1 h, 1 μM worked out at 90% in data set [3] (MDCK, A > B); 93% in data set [3] (MDCK, B > A); 97% on P-gp (MDR1) (A > B); 87% on P-gp (MDR1) (B > A). The efflux ratio at 1 h, 1 μM in data set [3] amounted to 1.4; on P-gp (MDR1) (MDCK-MDR1, 1 μM), 35.1. Further, the Papp B→A at 1 h, 1 μM in data set [3] (B > A) is 23.8 ×10⁻⁶ cm/s; on P-gp (MDR1) (MDCK-MDR1, 1 μM, B > A), 34.3 ×10⁻⁶ cm/s. Also, in the data set with MDCK-WT, the “Avg. Papp” value was found to be 17.55 ×10⁻⁶ cm/s. The IC50 shift on CYP3A4 is recorded as 1. Moreover, the “substrate of efflux transporters” value at human P-gp (MDR) is on record as “P-gp substrate”.

In general, Kp refers to tissue or fluid exposure divided by exposure in the circulation. The Papp A→B is how fast a substance crosses the layer from the apical side. Lower therefore signals poor permeation. For orientation: efflux ratio means the permeability from basolateral to apical divided by that in the opposite direction, in the common usage. Broadly, the Papp B→A is how fast a substance crosses the layer from the basolateral side.
